Laboratory results from ChEMBL document CHEMBL5352486, “Design, synthesis, in vitro - In vivo biological evaluation of novel thiazolopyrimidine compounds as antileishmanial agent with PTR1 inhibition” (Eur J Med Chem, 2023).
Active and inactive are the calls of the source. No cut-off for these calls is given here.

Assays:
Conditions in all cases: time 21.0 day
Leishmania infantum [1] = assay: Antileishmanial activity against Leishmania infantum infected in BALB/c mouse model of cutaneous leishmaniasis assessed as footpad lesion development at 50 mg/kg/day, ID administered for 21 days and measured after 16 weeks by Giemsa staining based analysis (reference value: 4.20 +/- 0.03); assay type: functional
Leishmania infantum [2] = assay: Antileishmanial activity against Leishmania infantum infected in BALB/c mouse model of visceral leishmaniasis assessed as footpad lesion development at 50 mg/kg/day, IM administered for 21 days and measured after 6 weeks by Giemsa staining based analysis (reference value: 25.81 +/- 0.84); assay type: functional
Leishmania infantum [3] = assay: Antileishmanial activity against Leishmania infantum infected in BALB/c mouse model of visceral leishmaniasis assessed as footpad lesion development at 50 mg/kg/day, IM administered for 21 days and measured after 2 weeks by Giemsa staining based analysis (reference value: 29.73 +/- 0.63); assay type: functional
Leishmania infantum [4] = assay: Antileishmanial activity against Leishmania infantum infected in BALB/c mouse model of cutaneous leishmaniasis assessed as parasite growth in foodpad at 50 mg/kg/day, ID administered for 21 days; assay type: functional, organism-based
Leishmania infantum [5] = assay: Antileishmanial activity against Leishmania infantum infected in BALB/c mouse model of cutaneous leishmaniasis assessed as footpad lesion development at 50 mg/kg/day, ID administered for 21 days and measured after 26 weeks by Giemsa staining based analysis (reference value: 4.91 +/- 0.01); assay type: functional
Leishmania infantum [6] = assay: Antileishmanial activity against Leishmania infantum infected in BALB/c mouse model of cutaneous leishmaniasis assessed as footpad lesion development at 50 mg/kg/day, ID administered for 21 days and measured after 14 weeks by Giemsa staining based analysis (reference value: 3.88 +/- 0.03); assay type: functional
Leishmania infantum [7] = assay: Antileishmanial activity against Leishmania infantum infected in BALB/c mouse model of cutaneous leishmaniasis assessed as footpad lesion development at 50 mg/kg/day, ID administered for 21 days and measured after 28 weeks by Giemsa staining based analysis (reference value: 4.92 +/- 0.01); assay type: functional
Leishmania infantum [8] = assay: Antileishmanial activity against Leishmania infantum infected in BALB/c mouse model of cutaneous leishmaniasis assessed as footpad lesion development at 50 mg/kg/day, ID administered for 21 days and measured after 2 weeks by Giemsa staining based analysis (reference value: 1.61 +/- 0.03); assay type: functional
Leishmania infantum [9] = assay: Antileishmanial activity against Leishmania infantum infected in BALB/c mouse model of cutaneous leishmaniasis assessed as footpad lesion development at 50 mg/kg/day, ID administered for 21 days and measured after 4 weeks by Giemsa staining based analysis (reference value: 1.90 +/- 0.03); assay type: functional
Leishmania infantum [10] = assay: Antileishmanial activity against Leishmania infantum infected in BALB/c mouse model of visceral leishmaniasis assessed as parasite growth in spleen at 50 mg/kg/day, IM administered for 21 days; assay type: functional, organism-based
Leishmania infantum [11] = assay: Antileishmanial activity against Leishmania infantum infected in BALB/c mouse model of cutaneous leishmaniasis assessed as footpad lesion development at 50 mg/kg/day, ID administered for 21 days and measured after 8 weeks by Giemsa staining based analysis (reference value: 3.13 +/- 0.03); assay type: functional
Leishmania infantum [12] = assay: Antileishmanial activity against Leishmania infantum infected in BALB/c mouse model of cutaneous leishmaniasis assessed as parasite growth in spleen at 50 mg/kg/day, ID administered for 21 days; assay type: functional, organism-based
Leishmania infantum [13] = assay: Antileishmanial activity against Leishmania infantum infected in BALB/c mouse model of cutaneous leishmaniasis assessed as footpad lesion development at 50 mg/kg/day, ID administered for 21 days and measured after 24 weeks by Giemsa staining based analysis (reference value: 4.90 +/- 0.02); assay type: functional
Leishmania infantum [14] = assay: Antileishmanial activity against Leishmania infantum infected in BALB/c mouse model of visceral leishmaniasis assessed as footpad lesion development at 50 mg/kg/day, IM administered for 21 days and measured after 9 weeks by Giemsa staining based analysis (reference value: 22.75 +/- 0.71); assay type: functional
Leishmania infantum [15] = assay: Antileishmanial activity against Leishmania infantum infected in BALB/c mouse model of cutaneous leishmaniasis assessed as footpad lesion development at 50 mg/kg/day, ID administered for 21 days and measured after 10 weeks by Giemsa staining based analysis (reference value: 3.40 +/- 0.03); assay type: functional
Leishmania infantum [16] = assay: Antileishmanial activity against Leishmania infantum infected in BALB/c mouse model of visceral leishmaniasis assessed as footpad lesion development at 50 mg/kg/day, IM administered for 21 days and measured after 5 weeks by Giemsa staining based analysis (reference value: 27.04 +/- 0.65); assay type: functional
Leishmania infantum [17] = assay: Antileishmanial activity against Leishmania infantum infected in BALB/c mouse model of visceral leishmaniasis assessed as footpad lesion development at 50 mg/kg/day, IM administered for 21 days and measured after 4 weeks by Giemsa staining based analysis (reference value: 28.01 +/- 0.65); assay type: functional
Leishmania infantum [18] = assay: Antileishmanial activity against Leishmania infantum infected in BALB/c mouse model of visceral leishmaniasis assessed as footpad lesion development at 50 mg/kg/day, IM administered for 21 days and measured after 1 week by Giemsa staining based analysis (reference value: 30.43 +/- 0.60); assay type: functional
Leishmania infantum [19] = assay: Antileishmanial activity against Leishmania infantum infected in BALB/c mouse model of visceral leishmaniasis assessed as footpad lesion development at 50 mg/kg/day, IM administered for 21 days and measured after 10 weeks by Giemsa staining based analysis (reference value: 21.58 +/- 0.74); assay type: functional
Leishmania infantum [20] = assay: Antileishmanial activity against Leishmania infantum infected in BALB/c mouse model of cutaneous leishmaniasis assessed as footpad lesion development at 50 mg/kg/day, ID administered for 21 days and measured after 18 weeks by Giemsa staining based analysis (reference value: 4.42 +/- 0.03); assay type: functional
Leishmania infantum [21] = assay: Antileishmanial activity against Leishmania infantum infected in BALB/c mouse model of visceral leishmaniasis assessed as footpad lesion development at 50 mg/kg/day, IM administered for 21 days and measured after 7 weeks by Giemsa staining based analysis (reference value: 24.85 +/- 0.88); assay type: functional
Leishmania infantum [22] = assay: Antileishmanial activity against Leishmania infantum infected in BALB/c mouse model of visceral leishmaniasis assessed as footpad lesion development at 50 mg/kg/day, IM administered for 21 days and measured after 8 weeks by Giemsa staining based analysis (reference value: 23.84 +/- 0.93); assay type: functional
Leishmania infantum [23] = assay: Antileishmanial activity against Leishmania infantum infected in BALB/c mouse model of visceral leishmaniasis assessed as footpad lesion development at 50 mg/kg/day, IM administered for 21 days and measured after 11 weeks by Giemsa staining based analysis (reference value: 20.71 +/- 0.48); assay type: functional
Leishmania infantum [24] = assay: Antileishmanial activity against Leishmania infantum infected in BALB/c mouse model of cutaneous leishmaniasis assessed as footpad lesion development at 50 mg/kg/day, ID administered for 21 days and measured after 12 weeks by Giemsa staining based analysis (reference value: 3.61 +/- 0.03); assay type: functional
Leishmania infantum [25] = assay: Antileishmanial activity against Leishmania infantum infected in BALB/c mouse model of visceral leishmaniasis assessed as footpad lesion development at 50 mg/kg/day, IM administered for 21 days and measured after 3 weeks by Giemsa staining based analysis (reference value: 28.94 +/- 0.59); assay type: functional
Leishmania infantum [26] = assay: Antileishmanial activity against Leishmania infantum infected in BALB/c mouse model of cutaneous leishmaniasis assessed as footpad lesion development at 50 mg/kg/day, ID administered for 21 days and measured after 20 weeks by Giemsa staining based analysis (reference value: 4.54 +/- 0.04); assay type: functional
Leishmania infantum [27] = assay: Antileishmanial activity against Leishmania infantum infected in BALB/c mouse model of cutaneous leishmaniasis assessed as parasite growth in liver at 50 mg/kg/day, ID administered for 21 days; assay type: functional, organism-based
Leishmania infantum [28] = assay: Antileishmanial activity against Leishmania infantum infected in BALB/c mouse model of cutaneous leishmaniasis assessed as footpad lesion development at 50 mg/kg/day, ID administered for 21 days and measured after 30 weeks by Giemsa staining based analysis (reference value: 4.92 +/- 0.01); assay type: functional
Leishmania infantum [29] = assay: Antileishmanial activity against Leishmania infantum infected in BALB/c mouse model of cutaneous leishmaniasis assessed as footpad lesion development at 50 mg/kg/day, ID administered for 21 days and measured after 32 weeks by Giemsa staining based analysis (reference value: 4.91 +/- 0.01); assay type: functional
Leishmania infantum [30] = assay: Antileishmanial activity against Leishmania infantum infected in BALB/c mouse model of cutaneous leishmaniasis assessed as footpad lesion development at 50 mg/kg/day, ID administered for 21 days and measured after 22 weeks by Giemsa staining based analysis (reference value: 4.71 +/- 0.04); assay type: functional
Leishmania infantum [31] = assay: Antileishmanial activity against Leishmania infantum infected in BALB/c mouse model of visceral leishmaniasis assessed as parasite growth in liver at 50 mg/kg/day, IM administered for 21 days; assay type: functional, organism-based
Leishmania infantum [32] = assay: Antileishmanial activity against Leishmania infantum infected in BALB/c mouse model of cutaneous leishmaniasis assessed as footpad lesion development at 50 mg/kg/day, ID administered for 21 days and measured after 6 weeks by Giemsa staining based analysis (reference value: 2.40 +/- 0.03); assay type: functional

Meglumine antimoniate
Activity (Leishmania infantum [1]): 4.2
Activity (Leishmania infantum [2]): 25.3
Activity (Leishmania infantum [3]): 29.4
Activity (Leishmania infantum [4]): Active
Activity (Leishmania infantum [5]): 4.69
Activity (Leishmania infantum [6]): 3.84
Activity (Leishmania infantum [7]): 3.49
Activity (Leishmania infantum [8]): 1.56
Activity (Leishmania infantum [9]): 1.87
Activity (Leishmania infantum [10]): Active
Activity (Leishmania infantum [11]): 3.09
Activity (Leishmania infantum [12]): Active
Activity (Leishmania infantum [13]): 4.9
Activity (Leishmania infantum [14]): 28.7
Activity (Leishmania infantum [15]): 3.4
Activity (Leishmania infantum [16]): 26.3
Activity (Leishmania infantum [17]): 27.4
Activity (Leishmania infantum [18]): 30.8
Activity (Leishmania infantum [19]): 29.3
Activity (Leishmania infantum [20]): 4.42
Activity (Leishmania infantum [21]): 26.7
Activity (Leishmania infantum [22]): 27.7
Activity (Leishmania infantum [23]): 30.3
Activity (Leishmania infantum [24]): 3.61
Activity (Leishmania infantum [25]): 28.5
Activity (Leishmania infantum [26]): 4.53
Activity (Leishmania infantum [27]): Active
Activity (Leishmania infantum [28]): 2.16
Activity (Leishmania infantum [29]): 1.7
Activity (Leishmania infantum [30]): 4.69
Activity (Leishmania infantum [31]): Active
Activity (Leishmania infantum [32]): 2.39
